Data taken from patent US11364285B2, “Methods, compositions, and molecular targets that exploit synergies and symbioses in the termite gut” (priority 2016, dated 2022).

What was measured:
[1] = test system: aerobic, culturable bacterial community from the R. flavipes digestive tract; test: Imidacloprid-loaded discs on plated gut homogenates; assay type: cell-based; conditions: concentrations of 1-1000-fold higher than used in the feeding assays
Experimental: (§1) After incubation at 26° C. for 24 hours, plates were examined—spots producing 3-10 CFUs were used to estimate the total number of aerobic culturable bacteria per termite. In addition, dilutions of gut homogenates were directly plated onto nutrient agar; discs loaded with serial dilutions of imidacloprid were added to these plates to examine its direct impact on the culturable bacteria.

Reticulitermes flavipes = test: Termite behavior and pathology observed in the bioassays (grooming, tunneling, light repellency); assay type: in vivo; conditions: sublethal concentration
[2] = test system: gut bacteria (16S rDNA abundance); test: 16S qPCR of relative bacterial DNA abundance in guts; assay type: in vivo, R. flavipes; conditions: 48 hours exposure; two colonies
Experimental: as §1
DNA was isolated from termite whole guts following control or imidacloprid treatments in bioassays using the Epicentre Yeast DNA extraction kit, including RNase treatment (Madison, Wis.). Following isolation, DNA samples were subjected to phenol-chloroform cleanup and concentrated using sodium acetate-ethanol precipitation. qPCR reactions were performed in triplicate with SensiFast SYBR No ROX kit (Bioline; Taunton, Mass.), 50 ng of sample DNA, nuclease-free water, and degenerate 16S rDNA primers. Primers amplified a 291 bp fragment containing the V4 hypervariable region of the 16S rRNA gene. Host DNA was quantified using primers specific to an apparent single-copy host gene, Actin 5C-1. Data were normalized to Actin 5C-1 to determine the relative abundance of 16S amplicons in the control and imidacloprid-treated DNA preparations.

[3] = test system: host gut and protist/symbiont genes; assay type: in vivo
Experimental: After two days, a subset of ten termites was removed from each of the replicate colony treatments (20 total samples), cold-immobilized, surface-sterilized by a serial rinse in 0.3% sodium hypochlorite (1×) and sterilized water (2×), and dissected on Parafilm to collect digestive tracts, including salivary glands. Digestive tracts were transferred into RLA Lysis Buffer (Promega, Fitchburg, Wis., USA) and stored at −70° C. until RNA isolation. RNA extraction and cDNA synthesis was performed.
Experiments were designed after MIAME guidelines. A type II microarray design was used with a common-reference strategy. The common reference consisted of a normalized blend of all RNA samples included in the experiment. This common reference was co-hybridized against each replicate sample on single microarrays. Dye swaps were performed between replicate samples and references to check for potential dye impacts on spot intensity. […] Specifically, such microarrays contained a mix of ˜14,500 cDNA oligonucleotides representing 10,500 host gut and protist/symbiont genes, including stereotypical immune response genes, thereby providing simultaneous assessments of host and protist gene expression. Reported analyses consisted of five pairwise comparisons to a common control as denoted by the numbers 1-5 in FIG. 4. More specific microarray data are provided in S15-S20 Tables of Sen et al. 2015, PLoS ONE 10(4): e0123391 (the “Sen Article”), which is hereby incorporated by reference herein in its entirety. […] Genbank accession numbers for sequences at each microarray position are provided in S21-S23 Tables of the Sen Article.
Before comparative analysis, the individual signal intensity values obtained from the microarray probes were log-transformed (using 2 as the base) and normalized among all individual samples included in the study. […] After the data were normalized, t-tests were used to make probe-by-probe comparisons among treatments. In each comparison, a p-value and fold change were computed for all microarray loci. In addition to p-values, q-values were computed. While the p-value measures the minimum statistical false-positive rate incurred when setting a threshold for test significance, the q-value measures the minimum false-discovery rate incurred when calling that test significant.
The generated contigs and the remaining orphan sequences were used for further analyses using the program BLAST2GO for identification and annotation. By using the inbuilt BLASTx algorithm, these sequences were used as queries in BLASTx searches against the Genbank non-redundant (nr) database with an e-value cut-off of ≤1e-03. The putative identification, annotation, and Gene Ontology (GO) terms for the sequences also were obtained through BLAST2GO. KEGG analyses were also performed.

[4] = test system: hindgut protist symbiont populations; test: Protist counts after imidacloprid treatment; assay type: in vivo, R. flavipes; conditions: 48 hr imidacloprid exposure
Experimental: To determine if imidacloprid indirectly or directly impacted protist and bacteria gut symbiont populations, post-hoc tests were performed using multiple independent termite colonies. Protist counts were made using five laboratory colonies as previously described. Bacterial CFU counts were done via aerobic culturing using two laboratory colonies; one that had been in the lab for >2 years (“colony 1”) and one collected from the field 1 month earlier (“colony 2”). […] Whole guts dissected from individual termites were sonicated in 250 μL of PBS, serially diluted, and spotted (2 μL) onto nutrient agar plates.

amidohydrolase 2 gene = test: qPCR of amidohydrolase 2 expression after kanamycin treatment and B. bassiana challenge; assay type: in vivo, R. flavipes; conditions: 5% kanamycin 48 h, then B. bassiana; compared to water treated controls
Text: To investigate whether symbiont removal reduced amidohydrolase expression, groups of 10 workers from three independent colonies were subjected to a treatment of 5% kanamycin (controls received water only) for 48-hours and subsequently challenged with a low dose of B. bassiana conidia (as above). 5% Kanamycin was used for bacterial symbiont removal based on extensive preliminary research. These bioassays were held for 48-hours before termite guts were dissected for RNA extraction. cDNA was synthesized using the Bioline SensiFast cDNA Synthesis kit using 1 μg total RNA as template. qPCR was performed using the SensiFast no ROX SYBR Master Mix (Bioline) and amidohydrolase 2 gene specific primers as well as Actin 5C as a reference gene (see Table S.2 of the Peterson & Scharf Article).

[5] = test system: termite workers challenged with B. bassiana; test: Post-hoc bioassay of termite susceptibility to B. bassiana after kanamycin; assay type: in vivo, R. flavipes
Experimental: Similarly, post-hoc bioassays were performed to determine if 5% kanamycin treatment was sufficient to increase termite susceptibility to B. bassiana. As above, groups of 10 termites were treated with 5% kanamycin or water (controls) for 48-hours, and then inoculated with a low dose of B. bassiana conidia suspended in 0.5% Tween-20 or a blank of 0.5% Tween-20 solution (controls). All together, these four groups allowed the investigators to account for any baseline mortality caused by antibiotic treatment. These bioassays were held for 7 days before scoring survivorship.

[6] = gut, 2 days post-exposure, vs solvent control
[7] = passing array positions, before contig formation

| Compound | Growth suppression of culturable gut bacteria by imidacloprid-impregnated paper discs [1] | Termite behaviors (tunneling, grooming, light repellency) (Reticulitermes flavipes) | Effect on total bacterial DNA abundance (16S PCR signals) [2] | Effect on expression of innate immune / antimicrobial genes ([3]; gut, 2 days) | Differentially expressed contigs and singletons, Overall [3, 6] | Downregulated contigs and singletons, Host [3, 6] | Downregulated contigs and singletons, Mixed [3, 6] | Downregulated contigs and singletons, Symbiont [3, 6] | Downregulated contigs and singletons, Totals [3, 6] | Upregulated contigs and singletons, Mixed [3, 6] | Upregulated contigs and singletons, Symbiont [3, 6] | Upregulated contigs and singletons, Totals [3, 6] | Downregulated array positions [3, 7] | Upregulated transcripts in the array (array positions) [3, 7] | Reduction of representative protist groups [4] | Treated termite colonies with reduced protist populations [4] | Reduction of amidohydrolase 2 gene expression in pathogen challenged termites (amidohydrolase 2 gene) | Increase in termite susceptibility to B. bassiana ([5]; 5% kanamycin 48 h, normalized mortality at 7 days post inoculation) | Increase in termite worker susceptibility to B. bassiana ([5]; 5% kanamycin, 7 days) |
| --- | --- | --- | --- | --- | --- | --- | --- | --- | --- | --- | --- | --- | --- | --- | --- | --- | --- | --- | --- |
| O=[N+]([O-])NC1=NCCN1Cc1ccc(Cl)nc1 [I, imidacloprid] | failed to suppress the growth | neither produced tunnels nor were repelled by light | did not detect any impact | failed to substantially alter | 393 | 8 | 3 | 205 | 216 | 1 | 19 | 177 | 504 | 260 | 25-50% | 5 of 6 | – | – | – |
| NC[C@H]1O[C@H](O[C@H]2[C@H](O)[C@@H](O[C@H]3O[C@H](CO)[C@@H](O)[C@H](N)[C@H]3O)[C@H](N)C[C@@H]2N)[C@H](O)[C@@H](O)[C@@H]1O [kanamycin] | – | – | – | – | – | – | – | – | – | – | – | – | – | – | – | – | ~5 × | 3 × | 3 fold |
